Laboratory results: ChEMBL document CHEMBL4507265 (2021)

Key:
[1] = target: Tyrosine-protein kinase ZAP-70 (Homo sapiens) (UniProt P43403); settings: Compound concentration 1000.0 nM
[2] = target: Rhodopsin kinase GRK7 (Homo sapiens) (UniProt Q8WTQ7); settings: Compound concentration 1000.0 nM
[3] = target: Mitogen-activated protein kinase kinase kinase 1 (Homo sapiens) (UniProt Q13233); settings: Compound concentration 1000.0 nM
[4] = target: TRAF2 and NCK-interacting protein kinase (Homo sapiens) (UniProt Q9UKE5); settings: Compound concentration 1000.0 nM
[5] = target: Tyrosine-protein kinase Fgr (Homo sapiens) (UniProt P09769); settings: Compound concentration 1000.0 nM
[6] = target: Protein kinase C delta type (Homo sapiens) (UniProt Q05655); settings: Compound concentration 1000.0 nM
[7] = target: Mitogen-activated protein kinase kinase kinase 13 (Homo sapiens) (UniProt O43283); settings: Compound concentration 1000.0 nM
[8] = target: Cyclin-G-associated kinase (Homo sapiens) (UniProt O14976); settings: Compound concentration 1000.0 nM
[9] = target: Dual specificity protein kinase CLK4 (Homo sapiens) (UniProt Q9HAZ1); settings: Compound concentration 1000.0 nM
[10] = target: Cyclin-dependent kinase-like 3 (Homo sapiens) (UniProt Q8IVW4); settings: Compound concentration 1000.0 nM
[11] = target: Inhibitor of nuclear factor kappa-B kinase subunit epsilon (Homo sapiens) (UniProt Q14164); settings: Compound concentration 1000.0 nM
[12] = target: Serine/threonine-protein kinase DCLK3 (Homo sapiens) (UniProt Q9C098); settings: Compound concentration 1000.0 nM
[13] = target: Serine/threonine-protein kinase 24 (Homo sapiens) (UniProt Q9Y6E0); settings: Compound concentration 1000.0 nM
[14] = target: Serine/threonine-protein kinase 32C (Homo sapiens) (UniProt Q86UX6); settings: Compound concentration 1000.0 nM
[15] = target: Dual specificity tyrosine-phosphorylation-regulated kinase 2 (Homo sapiens) (UniProt Q92630); settings: Compound concentration 1000.0 nM
[16] = target: 5-hydroxytryptamine receptor 7 (Homo sapiens) (UniProt P34969); settings: Compound concentration 10.0 uM
[17] = tested on: Receptor-type tyrosine-protein kinase FLT3 (Homo sapiens), P36888 [UNDEFINED MUTATION]; settings: Compound concentration 1000.0 nM
[18] = target: Ephrin type-B receptor 4 (Homo sapiens) (UniProt P54760); settings: Compound concentration 1000.0 nM
[19] = target: Mitogen-activated protein kinase kinase kinase 15 (Homo sapiens) (UniProt Q6ZN16); settings: Compound concentration 1000.0 nM
[20] = tested on: Tyrosine-protein kinase ABL1 (Homo sapiens), P00519 [E255K]; settings: Compound concentration 1000.0 nM
[21] = target: Calcium-dependent protein kinase 1 (Plasmodium falciparum) (UniProt P62344); settings: Compound concentration 1000.0 nM
[22] = target: Mast/stem cell growth factor receptor Kit (Homo sapiens) (UniProt P10721); settings: Compound concentration 1000.0 nM
[23] = tested on: Receptor-type tyrosine-protein kinase FLT3 (Homo sapiens), P36888 [D835Y]; settings: Compound concentration 1000.0 nM
[24] = tested on: Tyrosine-protein kinase ABL1 (Homo sapiens), P00519 [T315I]; settings: Compound concentration 1000.0 nM
[25] = target: Atypical kinase COQ8A, mitochondrial (Homo sapiens) (UniProt Q8NI60); settings: Compound concentration 1000.0 nM
[26] = target: Calcium/calmodulin-dependent protein kinase type 1 (Homo sapiens) (UniProt Q14012); settings: Compound concentration 1000.0 nM
[27] = target: Tyrosine-protein kinase Lck (Homo sapiens) (UniProt P06239); settings: Compound concentration 1000.0 nM
[28] = target: Serine/threonine-protein kinase LATS1 (Homo sapiens) (UniProt O95835); settings: Compound concentration 1000.0 nM
[29] = target: Myosin light chain kinase family member 4 (Homo sapiens) (UniProt Q86YV6); settings: Compound concentration 1000.0 nM
[30] = target: Myosin-IIIb (Homo sapiens) (UniProt Q8WXR4); settings: Compound concentration 1000.0 nM
[31] = target: Inhibitor of nuclear factor kappa-B kinase subunit beta (Homo sapiens) (UniProt O14920); settings: Compound concentration 1000.0 nM
[32] = target: Serine/threonine-protein kinase MRCK alpha (Homo sapiens) (UniProt Q5VT25); settings: Compound concentration 1000.0 nM
[33] = target: AP2-associated protein kinase 1 (Homo sapiens) (UniProt Q2M2I8); settings: Compound concentration 1000.0 nM
[34] = target: Mitogen-activated protein kinase kinase kinase 12 (Homo sapiens) (UniProt Q12852); settings: Compound concentration 1000.0 nM
[35] = target: Atypical kinase COQ8B, mitochondrial (Homo sapiens) (UniProt Q96D53); settings: Compound concentration 1000.0 nM
[36] = target: Mitogen-activated protein kinase 10 (Homo sapiens) (UniProt P53779); settings: Compound concentration 1000.0 nM
[37] = target: Calcium/calmodulin-dependent protein kinase type II subunit gamma (Homo sapiens) (UniProt Q13555); settings: Compound concentration 1000.0 nM
[38] = target: Serine/threonine-protein kinase SBK1 (Homo sapiens) (UniProt Q52WX2); settings: Compound concentration 1000.0 nM
[39] = target: Mitogen-activated protein kinase kinase kinase 14 (Homo sapiens) (UniProt Q99558); settings: Compound concentration 1000.0 nM
[40] = target: Ribosomal protein S6 kinase alpha-4 (Homo sapiens) (UniProt O75676); settings: Compound concentration 1000.0 nM
[41] = target: Serine/threonine-protein kinase Nek6 (Homo sapiens) (UniProt Q9HC98); settings: Compound concentration 1000.0 nM
[42] = target: Fibroblast growth factor receptor 3 (Homo sapiens) (UniProt P22607); settings: Compound concentration 1000.0 nM
[43] = target: Cyclin-dependent kinase 14 (Homo sapiens) (UniProt O94921); settings: Compound concentration 1000.0 nM
[44] = target: Inhibitor of nuclear factor kappa-B kinase subunit alpha (Homo sapiens) (UniProt O15111); settings: Compound concentration 1000.0 nM
[45] = target: Dual specificity testis-specific protein kinase 1 (Homo sapiens) (UniProt Q15569); settings: Compound concentration 1000.0 nM

Chain of Inhibitor of nuclear factor kappa-B kinase subunit beta (Homo sapiens) (O14920 whole entry): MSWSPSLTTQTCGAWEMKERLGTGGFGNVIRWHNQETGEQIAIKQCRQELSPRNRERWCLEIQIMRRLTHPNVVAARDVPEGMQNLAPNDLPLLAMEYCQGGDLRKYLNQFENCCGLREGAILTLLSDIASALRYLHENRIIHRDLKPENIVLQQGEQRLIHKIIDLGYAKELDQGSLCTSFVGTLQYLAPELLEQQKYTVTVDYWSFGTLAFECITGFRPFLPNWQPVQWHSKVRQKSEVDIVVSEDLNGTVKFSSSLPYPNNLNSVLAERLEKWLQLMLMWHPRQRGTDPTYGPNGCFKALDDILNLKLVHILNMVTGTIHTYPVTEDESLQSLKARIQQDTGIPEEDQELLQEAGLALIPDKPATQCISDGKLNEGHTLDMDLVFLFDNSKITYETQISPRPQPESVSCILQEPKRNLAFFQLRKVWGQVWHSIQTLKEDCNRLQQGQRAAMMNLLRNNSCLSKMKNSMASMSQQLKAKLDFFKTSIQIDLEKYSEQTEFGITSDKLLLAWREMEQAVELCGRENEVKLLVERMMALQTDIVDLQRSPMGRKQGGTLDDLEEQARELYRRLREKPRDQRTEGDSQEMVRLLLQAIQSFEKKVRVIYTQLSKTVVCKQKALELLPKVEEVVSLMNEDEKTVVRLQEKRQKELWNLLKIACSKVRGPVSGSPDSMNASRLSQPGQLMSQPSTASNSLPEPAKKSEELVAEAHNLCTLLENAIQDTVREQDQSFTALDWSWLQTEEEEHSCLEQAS
Chain of 5-hydroxytryptamine receptor 7 (Homo sapiens) (P34969 whole entry): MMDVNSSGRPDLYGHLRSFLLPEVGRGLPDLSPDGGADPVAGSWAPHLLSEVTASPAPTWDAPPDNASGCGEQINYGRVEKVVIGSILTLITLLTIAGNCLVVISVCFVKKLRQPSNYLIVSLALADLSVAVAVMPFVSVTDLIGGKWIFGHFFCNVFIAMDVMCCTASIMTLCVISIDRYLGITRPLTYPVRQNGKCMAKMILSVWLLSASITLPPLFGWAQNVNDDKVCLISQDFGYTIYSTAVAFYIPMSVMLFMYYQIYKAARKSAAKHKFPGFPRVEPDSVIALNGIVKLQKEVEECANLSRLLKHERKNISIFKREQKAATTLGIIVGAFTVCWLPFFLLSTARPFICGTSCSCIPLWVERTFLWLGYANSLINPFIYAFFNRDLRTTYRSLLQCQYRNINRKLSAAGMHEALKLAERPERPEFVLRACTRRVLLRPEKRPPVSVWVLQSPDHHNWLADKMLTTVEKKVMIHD
Chain of Cyclin-dependent kinase 14 (Homo sapiens) (O94921 whole entry): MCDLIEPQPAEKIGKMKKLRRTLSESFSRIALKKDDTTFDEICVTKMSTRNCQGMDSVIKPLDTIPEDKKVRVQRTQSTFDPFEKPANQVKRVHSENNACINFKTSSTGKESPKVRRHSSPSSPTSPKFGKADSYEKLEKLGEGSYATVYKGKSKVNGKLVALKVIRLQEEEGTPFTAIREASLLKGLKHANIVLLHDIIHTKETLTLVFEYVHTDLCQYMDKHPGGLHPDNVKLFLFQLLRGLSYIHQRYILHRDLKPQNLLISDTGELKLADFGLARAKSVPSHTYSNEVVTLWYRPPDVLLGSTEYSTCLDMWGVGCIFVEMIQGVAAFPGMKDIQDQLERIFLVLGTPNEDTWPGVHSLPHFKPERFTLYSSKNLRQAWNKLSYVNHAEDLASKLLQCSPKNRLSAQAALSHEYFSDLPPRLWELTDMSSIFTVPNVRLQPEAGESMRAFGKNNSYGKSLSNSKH
Chain of Inhibitor of nuclear factor kappa-B kinase subunit alpha (Homo sapiens) (O15111 whole entry): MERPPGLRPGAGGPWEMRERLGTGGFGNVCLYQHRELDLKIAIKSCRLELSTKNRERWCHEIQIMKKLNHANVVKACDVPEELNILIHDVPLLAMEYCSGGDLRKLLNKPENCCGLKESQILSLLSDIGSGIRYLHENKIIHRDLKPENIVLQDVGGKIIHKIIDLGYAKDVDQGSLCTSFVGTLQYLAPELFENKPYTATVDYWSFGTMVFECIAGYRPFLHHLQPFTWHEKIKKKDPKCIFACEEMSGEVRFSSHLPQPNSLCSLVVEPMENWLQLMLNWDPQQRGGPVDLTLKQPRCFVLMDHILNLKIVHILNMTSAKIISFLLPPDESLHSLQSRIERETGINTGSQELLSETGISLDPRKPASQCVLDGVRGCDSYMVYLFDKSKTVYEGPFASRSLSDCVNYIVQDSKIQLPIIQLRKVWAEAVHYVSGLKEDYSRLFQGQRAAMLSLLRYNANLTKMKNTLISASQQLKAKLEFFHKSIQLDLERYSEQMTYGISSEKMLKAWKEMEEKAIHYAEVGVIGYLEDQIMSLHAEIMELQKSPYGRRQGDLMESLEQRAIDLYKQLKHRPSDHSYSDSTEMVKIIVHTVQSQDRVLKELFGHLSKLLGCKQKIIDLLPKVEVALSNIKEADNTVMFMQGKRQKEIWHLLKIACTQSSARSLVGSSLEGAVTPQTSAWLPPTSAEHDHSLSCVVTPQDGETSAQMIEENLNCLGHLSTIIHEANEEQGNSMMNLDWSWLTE
Chain of Calcium/calmodulin-dependent protein kinase type II subunit gamma (Homo sapiens) (Q13555 whole entry): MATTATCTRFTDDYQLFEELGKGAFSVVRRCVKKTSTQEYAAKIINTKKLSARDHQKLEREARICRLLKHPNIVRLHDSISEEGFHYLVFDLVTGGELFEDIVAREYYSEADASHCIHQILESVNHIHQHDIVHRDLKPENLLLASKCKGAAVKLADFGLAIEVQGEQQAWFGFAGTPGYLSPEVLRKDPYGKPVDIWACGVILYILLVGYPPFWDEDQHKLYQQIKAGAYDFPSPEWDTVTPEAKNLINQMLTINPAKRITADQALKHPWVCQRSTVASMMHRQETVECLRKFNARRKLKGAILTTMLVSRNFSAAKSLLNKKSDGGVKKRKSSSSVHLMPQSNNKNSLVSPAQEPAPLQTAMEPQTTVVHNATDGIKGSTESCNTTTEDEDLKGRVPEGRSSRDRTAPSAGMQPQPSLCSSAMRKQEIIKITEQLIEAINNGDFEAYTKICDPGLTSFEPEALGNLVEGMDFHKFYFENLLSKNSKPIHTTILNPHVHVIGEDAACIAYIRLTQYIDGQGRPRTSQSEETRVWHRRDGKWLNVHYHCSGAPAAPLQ
Chain of Cyclin-dependent kinase-like 3 (Homo sapiens) (Q8IVW4 whole entry, looked up): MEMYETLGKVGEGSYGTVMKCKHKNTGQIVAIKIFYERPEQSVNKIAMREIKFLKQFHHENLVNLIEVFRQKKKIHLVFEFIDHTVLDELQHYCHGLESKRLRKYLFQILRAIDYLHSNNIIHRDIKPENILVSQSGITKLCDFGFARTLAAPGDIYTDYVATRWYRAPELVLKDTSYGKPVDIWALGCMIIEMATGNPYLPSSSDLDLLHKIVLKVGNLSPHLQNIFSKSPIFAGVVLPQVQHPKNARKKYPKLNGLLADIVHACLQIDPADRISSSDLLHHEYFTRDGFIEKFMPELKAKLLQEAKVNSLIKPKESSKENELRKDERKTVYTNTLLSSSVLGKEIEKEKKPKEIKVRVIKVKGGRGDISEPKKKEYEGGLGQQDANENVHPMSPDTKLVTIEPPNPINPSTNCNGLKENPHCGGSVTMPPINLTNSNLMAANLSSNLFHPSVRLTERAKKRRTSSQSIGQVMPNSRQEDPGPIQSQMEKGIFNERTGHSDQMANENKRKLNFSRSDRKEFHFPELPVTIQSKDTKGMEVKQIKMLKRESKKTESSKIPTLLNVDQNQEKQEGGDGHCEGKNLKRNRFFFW
Chain of Atypical kinase COQ8B, mitochondrial (Homo sapiens) (Q96D53 whole entry): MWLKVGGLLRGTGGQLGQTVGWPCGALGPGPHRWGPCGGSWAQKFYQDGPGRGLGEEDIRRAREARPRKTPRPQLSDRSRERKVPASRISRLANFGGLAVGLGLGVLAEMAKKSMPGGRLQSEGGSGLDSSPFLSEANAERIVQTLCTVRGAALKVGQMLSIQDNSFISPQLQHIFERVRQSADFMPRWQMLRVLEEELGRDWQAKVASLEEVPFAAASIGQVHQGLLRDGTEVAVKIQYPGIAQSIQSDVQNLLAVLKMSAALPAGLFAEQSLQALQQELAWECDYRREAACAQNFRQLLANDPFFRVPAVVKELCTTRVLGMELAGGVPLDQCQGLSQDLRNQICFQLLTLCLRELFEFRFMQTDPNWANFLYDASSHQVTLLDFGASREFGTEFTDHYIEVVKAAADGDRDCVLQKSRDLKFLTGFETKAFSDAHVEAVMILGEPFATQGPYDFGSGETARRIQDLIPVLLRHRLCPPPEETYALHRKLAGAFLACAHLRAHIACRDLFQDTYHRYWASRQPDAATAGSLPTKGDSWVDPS
Chain of Serine/threonine-protein kinase 24 (Homo sapiens) (Q9Y6E0 whole entry, looked up): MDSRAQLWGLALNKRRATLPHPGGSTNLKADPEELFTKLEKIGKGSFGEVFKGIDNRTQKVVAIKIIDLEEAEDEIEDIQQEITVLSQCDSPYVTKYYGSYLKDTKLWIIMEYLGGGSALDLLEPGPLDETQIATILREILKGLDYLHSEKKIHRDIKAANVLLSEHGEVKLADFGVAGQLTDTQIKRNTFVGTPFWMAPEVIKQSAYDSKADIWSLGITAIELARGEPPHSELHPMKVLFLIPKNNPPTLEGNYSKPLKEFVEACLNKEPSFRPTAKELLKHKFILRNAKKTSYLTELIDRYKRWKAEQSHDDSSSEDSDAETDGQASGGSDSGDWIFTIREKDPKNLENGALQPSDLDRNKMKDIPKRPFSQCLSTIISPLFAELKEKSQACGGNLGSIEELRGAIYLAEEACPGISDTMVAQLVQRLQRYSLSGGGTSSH
Chain of Serine/threonine-protein kinase Nek6 (Homo sapiens) (Q9HC98 whole entry): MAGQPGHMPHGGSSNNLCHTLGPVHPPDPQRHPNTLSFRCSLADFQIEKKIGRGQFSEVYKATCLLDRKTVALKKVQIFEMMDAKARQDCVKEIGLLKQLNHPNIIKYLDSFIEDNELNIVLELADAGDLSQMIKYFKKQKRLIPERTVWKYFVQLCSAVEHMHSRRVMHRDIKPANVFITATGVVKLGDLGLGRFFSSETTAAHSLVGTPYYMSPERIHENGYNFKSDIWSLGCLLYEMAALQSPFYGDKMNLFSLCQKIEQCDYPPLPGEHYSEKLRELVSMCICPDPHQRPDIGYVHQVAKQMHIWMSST

NS(=O)(=O)c1cc(NC(=O)Cc2ccccc2)ccc1Oc1cccc(Cl)c1 [BAY-1797]
residual activity [1]: 87% | residual activity [2]: 77% | residual activity [3]: 66% | residual activity [4]: 93% | residual activity [5]: 100% | residual activity [6]: 100% | residual activity [7]: 73% | residual activity [8]: 99% | residual activity [9]: 83% | residual activity [10]: 95% | residual activity [11]: 69% | residual activity [12]: 92% | residual activity [13]: 82% | residual activity [14]: 100% | residual activity [15]: 100% | inhibition [16]: 35.2% | residual activity [17]: 53% | residual activity [18]: 98% | residual activity [19]: 100% | residual activity [20]: 69% | residual activity [21]: 91% | residual activity [22]: 87% | residual activity [23]: 95% | residual activity [24]: 61% | residual activity [25]: 94% | residual activity [26]: 90% | residual activity [27]: 70% | residual activity [28]: 79% | residual activity [29]: 93% | residual activity [30]: 100% | residual activity [31]: 91% | residual activity [32]: 91% | residual activity [33]: 88% | residual activity [34]: 80% | residual activity [35]: 100% | residual activity [36]: 89% | residual activity [37]: 86% | residual activity [38]: 100% | residual activity [39]: 67% | residual activity [40]: 90% | residual activity [41]: 98% | residual activity [42]: 86% | residual activity [43]: 95% | residual activity [44]: 63% | residual activity [45]: 100%

NS(=O)(=O)c1cc(NC(=O)C2(c3ccccc3Cl)CC2)ccc1Oc1cccc(Cl)c1 [BAY-207]
residual activity [1]: 100% | residual activity [2]: 100% | residual activity [3]: 100% | residual activity [4]: 100% | residual activity [5]: 54% | residual activity [6]: 89% | residual activity [7]: 100% | residual activity [8]: 76% | residual activity [9]: 100% | residual activity [10]: 77% | residual activity [11]: 70% | residual activity [12]: 56% | residual activity [13]: 93% | residual activity [14]: 100% | residual activity [15]: 81% | inhibition [16]: 17.3% | residual activity [17]: 100% | residual activity [18]: 57% | residual activity [19]: 86% | residual activity [20]: 72% | residual activity [21]: 89% | residual activity [22]: 79% | residual activity [23]: 100% | residual activity [24]: 82% | residual activity [25]: 100% | residual activity [26]: 100% | residual activity [27]: 80% | residual activity [28]: 69% | residual activity [29]: 94% | residual activity [30]: 29% | residual activity [31]: 70% | residual activity [32]: 95% | residual activity [33]: 100% | residual activity [34]: 100% | residual activity [35]: 63% | residual activity [36]: 100% | residual activity [37]: 93% | residual activity [38]: 100% | residual activity [39]: 100% | residual activity [40]: 89% | residual activity [41]: 81% | residual activity [42]: 100% | residual activity [43]: 63% | residual activity [44]: 100% | residual activity [45]: 100%
